Data from US11390437B2, “Pharmaceutical formulation” (priority 2002, dated 2022).
Entries after “also recorded” stand apart in the source; their conditions may differ.

How the values were obtained:
[1] = Absorption (AUC) by route of administration, Example 3; details: after oropharyngeal (buccal) versus sublingual administration
[2] = Effect of light on stability of methanolic CBME solutions, HPLC; format: physicochemical; details: for residual compound: amber glass protected, 112 days
Description: Experiments were set up to follow the effects of white light on the stability of methanolic solutions of THC, CBD or THCV. Following preliminary knowledge that light of different wavelengths may have differing effects on compound stability (viz. tretinoin is stable only in red light or darkness), samples were wrapped in coloured acetate films or in light exclusive foil. A concurrent experiment used charcoal treated CBME to study the effects of the removal of plant pigments on the degradation process.
Cannabinoids: 1 mg/ml solutions of CBME were made up in AR methanol. Methanolic solutions of CBME (100 mg/ml) were passed through charcoal columns (Biotage Flash 12AC 7.5 cm cartridges, b/no. 273012S) and were then diluted to 1 mg/ml. Solutions were stored in soda-glass vials, which were tightly screw capped and oversealed with stretch film. Tubes were wrapped in coloured acetate films as follows:
Solutions were also filled into the amber glass U-save vials; these were sealed with a septum and oversealed. One tube of each series of samples was tightly wrapped in aluminium foil in order to completely exclude light. This served as a “dark” control to monitor the contribution of ambient temperature to the degradation behaviour. All of the above tubes were placed in a box fitted with 2×40 watt white Osram fluorescent tubes. The walls of the box were lined with reflective foil and the internal temperature was monitored at frequent intervals.
A further tube of each series was stored at −20° C. to act as a pseudo to the reference sample; in addition, one tube was exposed directly to light without protection. Samples were withdrawn for chromatographic analysis at intervals up to 112 days following the start of the study. The study was designated AS01201/AX282.
(§1) Samples of the test solutions were withdrawn and diluted as appropriate for HPLC and TLC analysis. HPLC was carried out in accordance with TM GE.004.V1 (SOPam058). TLC was performed on layers on Silica gel (MN SilG/UV) in accordance with TM GE.002.V1 (SOPam056).
The results from the HPLC analysis of samples drawn from the stored, light exposed solutions, are plotted and presented as FIGS. 6 and 6a (THC before and after charcoal treatment), and FIGS. 7 and 7a (CBD before and after charcoal treatment).

[3] = Cannabinoid uptake in patients, drops applied sublingually; format: in vivo, human; details: sublingual drops, dose approx 20 mg of each cannabinoid; for Cmax / AUC(0-t): human, plasma; for AUC(0-t): read-out: AUC 0-12
Procedure: Initially the applicant looked at cannabinoid uptake in patients by applying drops sublingually (BDS dissolved in a mixture of a glycerol/propylene glycol and ethanol) THC 5 mg/ml, CBD 5 mg/ml and THC/CBD 5 mg/ml plus 5 mg/ml.
The results are noted in Table 3 below:
The proportion of 11 hydroxy tetrahydro cannabinol to THC (AUC 0-12) was about 1.9 indicating a significant amount of oral ingestion may have occurred.
(§2) The data obtained is illustrated in FIGS. 1a, 1b and 2, which show the mean plasma concentrations for the formulations identified with reference to Tables 3 and 4.

[4] = Cannabinoid uptake, pump action sublingual spray; format: in vivo, human; details: dose approx 21 mg THC and 35 mg CBD; for Cmax / AUC(0-t): human, plasma; for AUC(0-t): read-out: AUC 0-12
Procedure: On moving to a pump action sublingual spray (following problems solubilising cannabinoids with hydrofluorocarbon propellant systems) the applicant obtained the results noted in Table 4. The solvent system comprised 50:50 ethanol to propylene glycol (v/v ratio) with THC 25 mg/ml; CBD 50 mg/ml and THC/CBD 25 mg/ml plus 50 mg/ml respectively.
The proportion of 11 hydroxy tetrahydro cannabinol to THC (AUC 0-12) was about 1.6. The profile for each cannabinoid was similar irrespective of the formulation (THC, CBD, THC plus CBD).
as §2
That effective delivery of the cannabinoids can be achieved in a vehicle consisting of ethanol and propylene glycol is illustrated by the plasma levels shown in FIGS. 1a, 1b and 2. These show, respectively, formulations containing the high THC and high CBD formulations in FIGS. 1a and 1b. Similarly, the effectiveness of a defined ratio formulation THC:CBD 1:1 is illustrated in FIG. 2.

[5] = Effect of light on stability, TLC qualitative analysis; format: physicochemical
Procedure: as §1
The evaluation of the light degraded solutions using thin layer chromatography, used both the existing normal phase system (i.e. Silica stationary phase and hexane/diethyl ether as mobile phase) and two additional systems, capable of resolving more polar or polymeric products formed during the degradation processes.
At the same time, there was an increase in the intensity of Fast Blue B staining material running at, or close to, the origin.

[6] = postural hypotension in naïve patients, hypertension reported on prolonged usage; cited from earlier work
[7] = THC alone versus same quantity of THC as Cannabis extract; cited from earlier work
[8] = Relative thermo-oxidative stability; details: THC versus CBD
[9] = CNS effect; Carlini et al, 1973; cited from earlier work
[10] = Reports of subjects taking THCV; details: compared with THC

CCCCCc1cc(O)c2c(c1)OC(C)(C)[C@@H]1CCC(CO)=C[C@@H]21 [11-OH THC, 11 hydroxy tetrahydro cannabinol]
reduction in the amount of 11-hydroxy metabolite detected [1]: approximately 25%

C=C(C)[C@@H]1CCC(C)=C[C@H]1c1c(O)cc(CCCCC)cc1O [CBD, cannabidiol]
residual compound ([2]; after charcoal treatment): approximately 64%
residual compound ([2]; without charcoal clean up): ~38%
relative stability under photochemical stress ([2]; light exposed methanolic CBME solutions): significantly more sensitive to the effects of light than is THC; also recorded: markedly less stable than THC
time to degradation to non-detectable levels ([2]; no charcoal treatment, all light exposures except amber glass, foil and −20° storage, 1 mg/ml CBME in methanol): < 40 days
Cmax [3]: 2 ng/mL
AUC(0-t) [3]: ~8 ng·h/mL
Plasma levels after 6 hours [3]: ~0.5 ng/mL
Plasma levels after 6 hours [4]: Plasma levels after 6 hours were about 1 ng/ml THC and 1 ng/ml CBD
Cmax [4]: 8 ng/mL
AUC(0-t) [4]: ~22 ng·h/mL

CCCCCc1cc(O)c2c(c1)OC(C)(C)[C@@H]1CCC(C)=C[C@@H]21 [THC, Δ^9-tetrahydrocannabinol]
stability of charcoal treated versus untreated extract ([2]; all solutions except those stored in the dark and at −20° C.): significant improvements to the stability
TLC spot intensity ([5]; day 112, all colour filtered lights, hexane/diethyl ether system): reduction in the intensity
TLC spot intensity ([5]; day 112, foil protected solution): none of these effects
effect on blood pressure [6]: § THC has a biphasic effect on blood pressure; in naïve patients it may produce postural hypotension and it has also been reported to produce hypertension on prolonged usage.
degree of pain relief [7]: lower degree of pain relief than the same quantity of THC given as an extract of Cannabis
relative thermo-oxidative stability [8]: less stable
Anticonvulsant [9]: † THC is pro convulsant
Cmax [3]: 6 ng/mL
AUC(0-t) [3]: ~16 ng·h/mL
Plasma levels after 6 hours [3]: ~1 ng/mL
Plasma levels after 6 hours [4]: Plasma levels after 6 hours were about 1 ng/ml THC and 1 ng/ml CBD
Cmax [4]: 6 ng/mL
AUC(0-t) [4]: ~16 ng·h/mL

CCCc1cc(O)c2c(c1)OC(C)(C)[C@@H]1CCC(C)=C[C@@H]21 [THCV, Δ^9-tetrahydrocannabinol propyl analogue]
hangover [10]: less severe hangover
mood enhancement as reported by subjects [10]: less disturbing than that produced by THC
